We go through one compound from ChEMBL document CHEMBL1140825, “Cy3-3-acylcholine: a fluorescent analogue of acetylcholine for single molecule detection” (Bioorg Med Chem Lett, 2008).

Each structure is given as a SMILES string. Calls of active or inactive are those of the source. The rule behind the calls is not given here.

Test [1] deals with Tetronarce californica. The test is described as follows: Displacement of non fluorescent acetylcholine from torpedo californica nACh receptor.
Test [2] relates to Tetronarce californica. As to the kind of experiment: Binding affinity to Torpedo californica nACh receptor in reconstituted diphytanoylphosphatidylcholine/cholesterol vesicles.
Test [3] addresses Neuronal acetylcholine receptor subunit alpha-4 (Gallus gallus) (UniProt P09482). As to the kind of experiment: Agonist activity at chicken nACh receptor alpha4beta2 expressed in Xenopus laevis oocytes assessed as time taken for current to decay from its peak to 50% at 100 nM by two-electrode voltage clamp assay. It counts as functional, cell-based. To be noted: Oocyte.

Sequence of Neuronal acetylcholine receptor subunit alpha-4 (Gallus gallus) (P09482 whole entry): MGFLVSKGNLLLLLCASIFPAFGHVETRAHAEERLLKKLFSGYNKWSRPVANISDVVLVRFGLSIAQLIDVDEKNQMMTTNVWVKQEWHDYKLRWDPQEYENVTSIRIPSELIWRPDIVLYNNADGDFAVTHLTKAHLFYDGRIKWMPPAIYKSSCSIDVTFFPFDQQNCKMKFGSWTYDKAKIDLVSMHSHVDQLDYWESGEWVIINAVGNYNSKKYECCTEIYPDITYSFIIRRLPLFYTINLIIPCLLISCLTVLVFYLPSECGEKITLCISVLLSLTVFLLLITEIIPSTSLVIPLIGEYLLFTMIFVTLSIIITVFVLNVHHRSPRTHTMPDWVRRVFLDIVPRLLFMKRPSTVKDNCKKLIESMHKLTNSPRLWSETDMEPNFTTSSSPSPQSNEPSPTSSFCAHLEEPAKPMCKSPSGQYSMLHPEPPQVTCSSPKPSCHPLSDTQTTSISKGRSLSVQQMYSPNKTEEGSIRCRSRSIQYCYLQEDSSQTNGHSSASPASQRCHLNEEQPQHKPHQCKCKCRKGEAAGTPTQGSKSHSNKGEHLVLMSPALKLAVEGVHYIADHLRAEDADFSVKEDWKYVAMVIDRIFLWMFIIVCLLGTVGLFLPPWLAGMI

For the compound `CCN1/C(=C/C=C/C2=[N+](CCCCCC(=O)NCCCC(=O)OCC[N+](C)(C)C)c3ccc(S(=O)(=O)[O-])cc3C2(C)C)C(C)(C)c2cc(S(=O)(=O)[O-])ccc21`, the result with Tetronarce californica [1] and in the test with Tetronarce californica [2] was Active. Besides, the T1/2 in test [3] amounted to 25 s.
